Values joined by “and” are separate entries in the source; they are usually repeats but may differ in a detail not shown here. Equal entries are not always repeated.
Legend:
Assay type in all cases: cell-based, Escherichia coli
EKO-35 rspA (pCA24N) = experiment: MIC of strains harboring ASKA plasmids; conditions: 0.1 mM IPTG; for MIC, EKO-35 rspA (pCA24N), Chlor +: 4 μg/mL chloramphenicol selection; for MIC, EKO-35 rspA (pCA24N), Chlor −: no plasmid selection; for MIC: EKO-35 rspA
EKO-35 tufA (pCA24N) = experiment: MIC of strains harboring ASKA plasmids; conditions: 0.1 mM IPTG; for MIC, EKO-35 tufA (pCA24N), Chlor +: 4 μg/mL chloramphenicol selection; for MIC, EKO-35 tufA (pCA24N), Chlor −: no plasmid selection; for MIC: EKO-35 tufA
EKO-35 yjfC (pCA24N) = experiment: MIC of strains harboring ASKA plasmids; conditions: 0.1 mM IPTG; for MIC, EKO-35 yjfC (pCA24N), Chlor +: 4 μg/mL chloramphenicol selection; for MIC, EKO-35 yjfC (pCA24N), Chlor −: no plasmid selection; for MIC: EKO-35 yjfC
[1] = tested on: EKO-35 porinated strain expressing acrD; experiment: Checkerboard synergy (FICI), porinated strain
Method in brief: (§1)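 Checkerboard broth microdilution in MHB II followed CLSI guidelines, with MIC defined as the lowest concentration giving no growth by OD600. FICI was calculated as CA/MICA + CB/MICB for PAβN or NMP combined with an antibiotic, with <0.5 classed as synergistic. Efflux-attributed fold resistance is the strain MIC divided by the EKO-35 MIC.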

[2] = tested on: EKO-35 porinated strain expressing acrF (AcrEF); experiment: Checkerboard synergy (FICI), porinated strain; conditions: for PABN MICa Alone: PAβN alone, one value per checkerboard
Method in brief: as §1

[3] = tested on: EKO-35-Pore strains producing other efflux pumps; experiment: Checkerboard synergy (FICI), porinated strain
Method in brief: as §1

[4] = EKO-35 acrEF Pore, NMP + antibiotic
[5] = EKO-35 acrEF Pore, PAβN + antibiotic
[6] = EKO-35 acrEF Pore, antibiotic alone (PAβN checkerboard)
[7] = EKO-35 acrEF Pore, antibiotic in combination with PAβN
[8] = strain EKO-35 acrEF Pore, NMP + antibiotic
[9] = strain EKO-35 acrEF Pore, antibiotic alone
[10] = strain EKO-35 acrEF Pore, antibiotic in combination with NMP
[11] = EKO-35 mdtEF Pore, NMP + antibiotic
[12] = EKO-35 mdtEF Pore, PAβN + antibiotic
[13] = EKO-35 mdtEF Pore, antibiotic alone (PAβN checkerboard)
[14] = EKO-35 mdtEF Pore, antibiotic in combination with PAβN
[15] = strain EKO-35 mdtEF Pore, NMP + antibiotic
[16] = strain EKO-35 mdtEF Pore, antibiotic alone
[17] = strain EKO-35 mdtEF Pore, antibiotic in combination with NMP
[18] = EKO-35 acrD Pore, PAβN + antibiotic
[19] = strain EKO-35 acrD Pore, NMP + antibiotic

## N#Cc1ccc(-c2c(NC(=O)C(Cl)Cl)oc(-c3cccs3)c2C#N)cc1 [compound 2]
EKO-35 rspA (pCA24N)
  MIC, EKO-35 rspA (pCA24N), Chlor +: >5 μg/mL
  MIC, EKO-35 rspA (pCA24N), Chlor −: >5 μg/mL
EKO-35 tufA (pCA24N)
  MIC, EKO-35 tufA (pCA24N), Chlor +: >5 μg/mL
  MIC, EKO-35 tufA (pCA24N), Chlor −: >5 μg/mL
EKO-35 yjfC (pCA24N)
  MIC, EKO-35 yjfC (pCA24N), Chlor +: >5 μg/mL
  MIC, EKO-35 yjfC (pCA24N), Chlor −: >5 μg/mL

## Cn1cc(Br)c(-c2cccc(NC(=O)Nc3ccc(OC(F)(F)F)cc3)c2)n1 [compound 14]
EKO-35 rspA (pCA24N)
  MIC, EKO-35 rspA (pCA24N), Chlor +: >5 μg/mL
  MIC, EKO-35 rspA (pCA24N), Chlor −: >5 μg/mL
EKO-35 tufA (pCA24N)
  MIC, EKO-35 tufA (pCA24N), Chlor +: >5 μg/mL
  MIC, EKO-35 tufA (pCA24N), Chlor −: >5 μg/mL
EKO-35 yjfC (pCA24N)
  MIC, EKO-35 yjfC (pCA24N), Chlor +: >5 μg/mL
  MIC, EKO-35 yjfC (pCA24N), Chlor −: >5 μg/mL

## O=C(Nc1ccccc1C(=O)Nc1nnc(C(F)(F)F)s1)c1ccccc1Cl [compound 19]
EKO-35 rspA (pCA24N)
  MIC, EKO-35 rspA (pCA24N), Chlor +: >5 μg/mL
  MIC, EKO-35 rspA (pCA24N), Chlor −: >5 μg/mL
EKO-35 tufA (pCA24N)
  MIC, EKO-35 tufA (pCA24N), Chlor +: >5 μg/mL
  MIC, EKO-35 tufA (pCA24N), Chlor −: >5 μg/mL
EKO-35 yjfC (pCA24N)
  MIC, EKO-35 yjfC (pCA24N), Chlor +: >5 μg/mL
  MIC, EKO-35 yjfC (pCA24N), Chlor −: >5 μg/mL

## CC[C@H]1OC(=O)[C@H](C)[C@@H](O[C@H]2C[C@@](C)(OC)[C@@H](O)[C@H](C)O2)[C@H](C)[C@@H](O[C@@H]2O[C@H](C)C[C@H](N(C)C)[C@H]2O)[C@](C)(O)C[C@@H](C)C(=O)[C@H](C)[C@@H](O)[C@]1(C)O [erythromycin]
[1]; acrD expressed in the porinated strain
  interaction of PAβN in combination with the labelled antibiotic (FICI): still observed
[2]; [4]
  Effect: Additive
  FICI: 0.750
[2]; [5]
  Effect: Synergistic
  FICI: 0.385
[2]; [6]
  MICb Alone: 0.5 µg/mL
[2]; [7]
  MICb Combined: 0.13 µg/mL
[2]; [8]
  Effect: Additive (additive (FICI >0.5-1.0))
  FICI: 0.750
[2]; [9]
  MICb Alone: 1 µg/mL
[2]; [10]
  MICb Combined: 0.5 µg/mL
[3]; [11]
  Effect: Additive
[3]; [12]
  Effect: Synergistic
  FICI: 0.185
[3]; [13]
  MICb Alone: 1 µg/mL
[3]; [14]
  MICb Combined: 0.06 µg/mL
[3]; [15]
  Effect: Additive (additive (FICI >0.5-1.0))
[3]; [16]
  MICb Alone: 8 µg/mL
[3]; [17]
  MICb Combined: 1 µg/mL

## CC(=O)O[C@H]1C[C@@]2(C)[C@@H](C[C@@H](O)[C@H]3[C@@]4(C)CC[C@@H](O)[C@@H](C)[C@@H]4CC[C@@]32C)/C1=C(\CCC=C(C)C)C(=O)O [fusidic acid]
[1]; EKO-35 acrD Pore, NMP + antibiotic
  FICI: 1.000
[1]; [18]
  Effect: Synergistic
  FICI: 0.250
[1]; EKO-35 acrD Pore, antibiotic alone (PAβN checkerboard)
  MICb Alone: 64 µg/mL
[1]; EKO-35 acrD Pore, antibiotic in combination with PAβN
  MICb Combined: 8 µg/mL
[1]; [19]
  Effect: — (indifferent (FICI >1.0))
  FICI: 1.000
[1]; strain EKO-35 acrD Pore, antibiotic alone
  MICb Alone: 64 µg/mL
[1]; strain EKO-35 acrD Pore, antibiotic in combination with NMP
  MICb Combined: 32 µg/mL
[2]; [4]
  Effect: Additive
[2]; [5]
  Effect: Synergistic
  FICI: 0.313
[2]; [6]
  MICb Alone: 4 µg/mL
[2]; [7]
  MICb Combined: 1 µg/mL
[2]; [8]
  Effect: Additive (additive (FICI >0.5-1.0))
[2]; [9]
  MICb Alone: 2 µg/mL
[2]; [10]
  MICb Combined: 1 µg/mL
[3]; [11]
  Effect: Additive
  FICI: 0.750
[3]; [12]
  Effect: Synergistic
  FICI: 0.250
[3]; [13]
  MICb Alone: 16 µg/mL
[3]; [14]
  MICb Combined: 2 µg/mL
[3]; [15]
  Effect: Additive (additive (FICI >0.5-1.0))
  FICI: 0.750
[3]; [16]
  MICb Alone: 8 µg/mL
[3]; [17]
  MICb Combined: 2 µg/mL

## COc1cc(Cc2cnc(N)nc2N)cc(OC)c1OC [trimethoprim]
EKO-35 yjfC (pCA24N); Chlor + (4 μg/mL)
  MIC: 0.391 µg/mL

## benzalkonium chloride
EKO-35 rspA (pCA24N); Chlor + (4 μg/mL)
  MIC: 0.781 µg/mL
EKO-35 rspA (pCA24N); Chlor −
  MIC: 0.781 µg/mL
EKO-35 tufA (pCA24N); Chlor + (4 μg/mL)
  MIC: 0.781 µg/mL
EKO-35 tufA (pCA24N); Chlor −
  MIC: 0.781 µg/mL
EKO-35 yjfC (pCA24N); Chlor + (4 μg/mL)
  MIC: 0.781 µg/mL
EKO-35 yjfC (pCA24N); Chlor −
  MIC: 0.781 µg/mL

## phenylalanine-arginine-β-naphthylamide [PAβN]
[1]; EKO-35 acrD Pore, PAβN alone, one value per checkerboard, listed as PABN
  PABN MICa Alone: 32 µg/mL and 64 µg/mL
[1]; EKO-35 acrD Pore, with Fusidic Acid
  PABN MICa Combined: 8 µg/mL
[1]; EKO-35 acrD Pore, with Novobiocin
  PABN MICa Combined: 16 µg/mL
[1]; EKO-35 acrD Pore, with Oxacillin
  PABN MICa Combined: 16 µg/mL
[2]; EKO-35 acrEF Pore
  PABN MICa Alone: 64 µg/mL
[2]; EKO-35 acrEF Pore, listed as PABN
  PABN MICa Alone: 128 µg/mL
[2]; EKO-35 acrEF Pore, with Ciprofloxacin
  PABN MICa Combined: 16 µg/mL
[2]; EKO-35 acrEF Pore, with Erythromycin
  PABN MICa Combined: 16 µg/mL
[2]; EKO-35 acrEF Pore, with Fusidic Acid
  PABN MICa Combined: 8 µg/mL
[2]; EKO-35 acrEF Pore, with Oxacillin
  PABN MICa Combined: 32 µg/mL
[3]; EKO-35 mdtEF Pore, PAβN alone, one value per checkerboard
  PABN MICa Alone: 64 µg/mL
[3]; EKO-35 mdtEF Pore, with Erythromycin
  PABN MICa Combined: 32 µg/mL
[3]; EKO-35 mdtEF Pore, with Fusidic Acid
  PABN MICa Combined: 8 µg/mL

— US20230407243A1, “GENETIC PLATFORM TO INVESTIGATE THE FUNCTIONS OF BACTERIAL DRUG EFFLUX PUMPS” (priority 2022, published 2023)
